From ChEMBL document CHEMBL1134188, “Evidence for gliotoxin-glutathione conjugate adducts” (Bioorg Med Chem Lett, 2001)

Assay: The equilibrium constant pair at a pH of 7.0 and temperature of 25 degree Centigrade
Conditions: pH 7

Compound: CN1C(=O)[C@]23CC4=CC=C[C@H](O)[C@H]4N2C(=O)[C@@]1(CO)SS3.N[C@@H](CS)C(=O)O [GLIOTOXIN/CYSTEINE]
- Keq: 400 M⁻¹
